Reference: ChEMBL document CHEMBL5303304, “EUbOPEN Chemogenomics Library - IncuCyte” (2023)

Experiments:
Format in all cases: toxicity, cell-based
Fibroblast = assay: Incucyte cell viability with human fibroblast; details: 10 µM, compound concentration 10 uM
HEK-293T = assay: Incucyte cell viability with HEK293T; details: human, 10 µM, compound concentration 10 uM
U2OS = assay: Incucyte cell viability with U2OS; details: human, 10 µM, compound concentration 10 uM
Note: unitless GR value; below 1 slowed growth and below 0 cell loss.

Row | SMILES | Growth Rate (Fibroblast; 18 h, replicate number 2) | Growth Rate (HEK-293T; 6 h, replicate number 1) | Growth Rate (HEK-293T; 12 h, replicate number 1) | Growth Rate (HEK-293T; 12 h, replicate number 2) | Growth Rate (HEK-293T; 18 h, replicate number 1) | Growth Rate (HEK-293T; 18 h, replicate number 2) | Growth Rate (HEK-293T; 24 h, replicate number 1) | Growth Rate (HEK-293T; 24 h, replicate number 2) | Growth Rate (Fibroblast; 0 h, replicate number 1) | Growth Rate (Fibroblast; 6 h, replicate number 1) | Growth Rate (Fibroblast; 12 h, replicate number 2) | Growth Rate (Fibroblast; 18 h, replicate number 1) | Growth Rate (Fibroblast; 24 h, replicate number 1) | Growth Rate (Fibroblast; 24 h, replicate number 2) | Growth Rate (U2OS; 0 h, replicate number 1) | Growth Rate (U2OS; 12 h, replicate number 1) | Growth Rate (U2OS; 24 h, replicate number 1) | Growth Rate (U2OS; 12 h, replicate number 2) | Growth Rate (U2OS; 18 h, replicate number 2) | Growth Rate (U2OS; 24 h, replicate number 2) | other results
1 | CC1=C(C(=O)OCCO)[C@@H](c2ccc(C#N)cc2)NC(=O)N1c1cccc(C(F)(F)F)c1 | 0.92 | 0.61 | 0.73 | 0.75 | 0.68 | 0.71 | 0.67 | 0.97 | – | – | – | – | – | – | – | – | – | – | – | – | Growth Rate (Fibroblast; 0 h, replicate number 2): -0.51; Growth Rate (U2OS; 0 h, replicate number 2): 0.55
2 | O=C(CCCCCCc1ccccc1)c1ncc(-c2ccccn2)o1 | 0.85 | 0.7 | 0.79 | 0.88 | 0.76 | 0.88 | 0.8 | 0.97 | -0.98 | 0.4 | 0.63 | 0.96 | 0.93 | 0.84 | 0.55 | 0.58 | 0.87 | – | – | – | Growth Rate (Fibroblast; 6 h, replicate number 2): 0.12; Growth Rate (U2OS; 6 h, replicate number 1): 0.84
3 | COc1ccccc1N1CCN(c2ncnc3c2cnn3-c2ccccc2)CC1 | – | 0.67 | 0.99 | 0.98 | – | – | – | – | – | -0.03 | 0.94 | 0.39 | 0.48 | 0.91 | 0.75 | 0.47 | 0.25 | 0.93 | 1 | 0.85 | Growth Rate (Fibroblast; 0 h, replicate number 2): 0; Growth Rate (Fibroblast; 12 h, replicate number 1): 0.42; Growth Rate (HEK-293T; 6 h, replicate number 2): 0.19; Growth Rate (U2OS; 18 h, replicate number 1): 0.13
4 | C[C@]12CC[C@@H]3c4ccc(O)cc4CC[C@H]3[C@@H]1C[C@H]1OC(=O)C[C@]12O | 0.13 | 0.27 | 0.37 | 0.34 | 0.36 | 0.67 | 0.53 | 0.86 | -1 | 0.09 | -0.36 | 0.55 | 0.77 | 0.48 | 0.82 | 0.21 | 0.6 | 0.26 | 0.65 | 0.72 | Growth Rate (Fibroblast; 6 h, replicate number 2): -0.98; Growth Rate (Fibroblast; 12 h, replicate number 1): 0.52; Growth Rate (U2OS; 0 h, replicate number 2): 0.2; Growth Rate (U2OS; 6 h, replicate number 1): 0.43; Growth Rate (U2OS; 6 h, replicate number 2): -0.19; Growth Rate (U2OS; 18 h, replicate number 1): 0.38
5 | Cc1ccc2c(NS(=O)(=O)c3ccccc3Cl)cccc2c1Oc1ncccc1-c1ccnc(N[C@H]2CCCNC2)n1.Cl | 0.38 | 0.95 | 0.33 | 0.52 | 0.5 | 0.6 | 0.48 | 0.55 | -1 | 0.69 | 0.45 | 0.34 | 0.3 | 0.49 | 0.22 | 0.68 | 0.55 | 0.62 | 0.57 | 0.58 | Growth Rate (Fibroblast; 12 h, replicate number 1): 0.21; Growth Rate (U2OS; 0 h, replicate number 2): 0.32; Growth Rate (U2OS; 6 h, replicate number 1): 0.4; Growth Rate (U2OS; 6 h, replicate number 2): 0.75; Growth Rate (U2OS; 18 h, replicate number 1): 0.69
6 | CC(C)Nc1ncnc2cc(OCc3cccc([S@@](C)(=N)=O)c3)c(Br)cc12 | – | 0.65 | 0.67 | 0.73 | 0.82 | 0.81 | 0.82 | 0.87 | -0.74 | – | – | – | – | – | – | – | 0.93 | – | – | – | Growth Rate (HEK-293T; 6 h, replicate number 2): 0.3
7 | COc1cc(-c2cc([C@H](O)C3CC3)n3ncnc(N)c23)ccc1CO | – | -0.7 | 0.16 | 0.26 | 0.62 | 0.76 | 0.74 | 0.87 | – | – | – | – | – | 0.98 | – | – | 0.8 | 0.85 | 0.89 | 0.91 | Growth Rate (Fibroblast; 0 h, replicate number 2): 0.98; Growth Rate (HEK-293T; 6 h, replicate number 2): -0.8
8 | CCC(C(=O)Nc1ccc(-c2cc3ccccc3s2)c(C(N)=O)c1)c1nccs1 (stereo not given) | 0.9 | 0.31 | 0.59 | 0.52 | 0.48 | 0.61 | 0.47 | 0.71 | – | 0.22 | – | 0.93 | 0.96 | – | 0.65 | 0.41 | 0.72 | 0.59 | 0.8 | 0.86 | Growth Rate (Fibroblast; 6 h, replicate number 2): -0.79; Growth Rate (Fibroblast; 12 h, replicate number 1): 0.72; Growth Rate (HEK-293T; 6 h, replicate number 2): 0.23; Growth Rate (U2OS; 6 h, replicate number 1): 0.65; Growth Rate (U2OS; 6 h, replicate number 2): 0.92; Growth Rate (U2OS; 18 h, replicate number 1): 0.47
